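Test compounds were applied to cells in 96-well plates for 48 hours at 5 doses. The concentration for 50% growth inhibition is given as GI50.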 The source made the active and inactive calls. No stated cut-off is given here; in the data, active = GI50 up to about 1.1 µM and inactive = higher.
Assays:
Assay in all cases: DTP human tumour cell line panel, 48 h
[1] = tested on: HOP-62
[2] = tested on: SN12C
[3] = tested on: T47D
[4] = tested on: A549
[5] = tested on: CAKI-1
[6] = tested on: Malme-3M
[7] = tested on: SF-268
[8] = tested on: NCI/ADR-RES
[9] = tested on: OVCAR-8
[10] = tested on: DU-145
[11] = tested on: SK-OV-3
[12] = tested on: CCRF-CEM
[13] = tested on: TK-10
[14] = tested on: UO-31
[15] = tested on: IGROV-1
[16] = tested on: M14
[17] = tested on: MDA-MB-231
[18] = tested on: Hs-578T
[19] = tested on: A498
[20] = tested on: MDA-MB-435
[21] = tested on: NCI-H226
[22] = tested on: HT-29
[23] = tested on: SR
[24] = tested on: SNB-19
[25] = tested on: SW-620
[26] = tested on: RPMI-8226
[27] = tested on: 786-0
[28] = tested on: UACC-62
[29] = tested on: KM12
[30] = tested on: SK-MEL-28
[31] = tested on: RXF 393
[32] = tested on: PC-3
[33] = tested on: LOX IMVI
[34] = tested on: NCI-H460
[35] = tested on: U-251
[36] = tested on: MDA-N
[37] = tested on: SK-MEL-5
[38] = tested on: HCT-15
[39] = tested on: OVCAR-5
[40] = tested on: MOLT-4
[41] = tested on: MCF7
[42] = tested on: SNB-75
[43] = tested on: BT-549
[44] = tested on: OVCAR-4
[45] = tested on: COLO 205
[46] = tested on: UACC-257
[47] = tested on: EKVX
[48] = tested on: HCT-116
[49] = tested on: ACHN
[50] = tested on: HCC 2998
[51] = tested on: SF-295
[52] = tested on: K562
[53] = tested on: SK-MEL-2
[54] = tested on: OVCAR-3
[55] = tested on: NCI-H522
[56] = tested on: HL-60
[57] = tested on: SF-539
[58] = tested on: HOP-92
[59] = tested on: NCI-H23

## Cc1ccc(Cc2nn(C)c(=O)n2-n2cccc2)cc1
[1]
  GI50: > 100 µM (inactive)
[2]
  GI50: > 100 µM (inactive)
[3]
  GI50: > 100 µM (inactive)
[4]
  GI50: > 100 µM (inactive)
[5]
  GI50: > 100 µM (inactive)
[6]
  GI50: > 100 µM (inactive)
[7]
  GI50: > 100 µM (inactive)
[8]
  GI50: > 100 µM (inactive)
[9]
  GI50: > 100 µM (inactive)
[10]
  GI50: > 100 µM (inactive)
[11]
  GI50: > 100 µM (inactive)
[12]
  GI50: > 100 µM (inactive)
[13]
  GI50: > 100 µM (inactive)
[14]
  GI50: > 100 µM (inactive)
[15]
  GI50: > 100 µM (inactive)
[16]
  GI50: > 100 µM (inactive)
[17]
  GI50: > 100 µM (inactive)
[18]
  GI50: > 100 µM (inactive)
[19]
  GI50: > 100 µM (inactive)
[20]
  GI50: > 100 µM (inactive)
[21]
  GI50: > 100 µM (inactive)
[22]
  GI50: > 100 µM (inactive)
[23]
  GI50: > 100 µM (inactive)
[24]
  GI50: > 100 µM (inactive)
[25]
  GI50: > 100 µM (inactive)
[26]
  GI50: > 100 µM (inactive)
[27]
  GI50: > 100 µM (inactive)
[28]
  GI50: > 100 µM (inactive)
[29]
  GI50: > 100 µM (inactive)
[30]
  GI50: > 100 µM (inactive)
[31]
  GI50: > 100 µM (inactive)
[32]
  GI50: > 100 µM (inactive)
[33]
  GI50: > 100 µM (inactive)
[34]
  GI50: > 100 µM (inactive)
[35]
  GI50: > 100 µM (inactive)
[36]
  GI50: > 100 µM (inactive)
[37]
  GI50: > 100 µM (inactive)
[38]
  GI50: > 100 µM
[39]
  GI50: > 100 µM (inactive)
[40]
  GI50: > 100 µM (inactive)
[41]
  GI50: > 100 µM (inactive)
[42]
  GI50: > 100 µM (inactive)
[43]
  GI50: > 100 µM (inactive)
[44]
  GI50: > 100 µM (inactive)
[45]
  GI50: > 100 µM (inactive)
[46]
  GI50: 56.8 µM (inactive)
[47]
  GI50: > 100 µM (inactive)
[48]
  GI50: > 100 µM (inactive)
[49]
  GI50: > 100 µM (inactive)
[50]
  GI50: > 100 µM (inactive)
[51]
  GI50: > 100 µM (inactive)
[52]
  GI50: > 100 µM (inactive)
[53]
  GI50: > 100 µM (inactive)
[54]
  GI50: > 100 µM (inactive)
[55]
  GI50: > 100 µM (inactive)

## Cn1cc(NC(=O)Nc2cc(C(=O)Nc3cc(C(=O)Nc4ccc5cc(S(=O)(=O)O)cc(S(=O)(=O)O)c5c4)n(C)c3)n(C)c2)cc1C(=O)Nc1cc(C(=O)Nc2ccc3cc(S(=O)(=O)O)cc(S(=O)(=O)O)c3c2)n(C)c1
[1]
  GI50: > 100 µM (inactive)
[2]
  GI50: > 100 µM (inactive)
[3]
  GI50: > 100 µM (inactive)
[4]
  GI50: 84.9 µM (inactive)
[6]
  GI50: > 100 µM (inactive)
[7]
  GI50: > 100 µM (inactive)
[8]
  GI50: > 100 µM (inactive)
[9]
  GI50: > 100 µM (inactive)
[10]
  GI50: > 100 µM (inactive)
[11]
  GI50: > 100 µM (inactive)
[12]
  GI50: > 100 µM (inactive)
[13]
  GI50: 83 µM (inactive)
[14]
  GI50: > 100 µM (inactive)
[15]
  GI50: > 100 µM (inactive)
[16]
  GI50: 91.4 µM (inactive)
[56]
  GI50: > 100 µM (inactive)
[17]
  GI50: > 100 µM (inactive)
[18]
  GI50: > 100 µM (inactive)
[20]
  GI50: > 100 µM (inactive)
[21]
  GI50: > 100 µM (inactive)
[22]
  GI50: > 100 µM (inactive)
[23]
  GI50: > 100 µM (inactive)
[24]
  GI50: > 100 µM (inactive)
[57]
  GI50: > 100 µM (inactive)
[25]
  GI50: > 100 µM (inactive)
[26]
  GI50: > 100 µM (inactive)
[27]
  GI50: > 100 µM (inactive)
[28]
  GI50: > 100 µM (inactive)
[29]
  GI50: > 100 µM (inactive)
[30]
  GI50: > 100 µM (inactive)
[31]
  GI50: > 100 µM (inactive)
[32]
  GI50: > 100 µM (inactive)
[33]
  GI50: > 100 µM (inactive)
[58]
  GI50: 90.8 µM (inactive)
[34]
  GI50: > 100 µM (inactive)
[35]
  GI50: > 100 µM (inactive)
[59]
  GI50: > 100 µM (inactive)
[36]
  GI50: > 100 µM (inactive)
[37]
  GI50: > 100 µM (inactive)
[38]
  GI50: > 100 µM
[39]
  GI50: > 100 µM (inactive)
[40]
  GI50: > 100 µM (inactive)
[41]
  GI50: > 100 µM (inactive)
[42]
  GI50: 82 µM (inactive)
[43]
  GI50: > 100 µM (inactive)
[44]
  GI50: > 100 µM (inactive)
[45]
  GI50: > 100 µM (inactive)
[46]
  GI50: > 100 µM (inactive)
[47]
  GI50: 38.5 µM (inactive)
[48]
  GI50: > 100 µM (inactive)
[49]
  GI50: > 100 µM (inactive)
[50]
  GI50: > 100 µM (inactive)
[51]
  GI50: > 100 µM (inactive)
[52]
  GI50: > 100 µM (inactive)
[54]
  GI50: 84.3 µM (inactive)
[55]
  GI50: > 100 µM (inactive)

## C=C1C(=O)O[C@H]2C3OC3(C)CC/C=C(/C(=O)OC)[C@@H](OC(C)=O)[C@H](OC(=O)C3(C)OC3C)[C@H]12 (stereo partly drawn)
[3]
  GI50: 0.989 µM (active)
[8]
  GI50: 3.73 µM (inactive)
[10]
  GI50: 13.6 µM (inactive)
[56]
  GI50: 0.196 µM (active)
[17]
  GI50: 2.07 µM (inactive)
[18]
  GI50: 7.8 µM (inactive)
[20]
  GI50: 2.05 µM (inactive)
[23]
  GI50: 0.186 µM (active)
[24]
  GI50: > 7.5 µM (inactive)
[26]
  GI50: 0.297 µM (active)
[32]
  GI50: 2.17 µM (inactive)
[58]
  GI50: 1.61 µM (inactive)
[36]
  GI50: 1.65 µM (inactive)
[39]
  GI50: 2.94 µM (inactive)
[41]
  GI50: 1.12 µM (active)
[43]
  GI50: 1.04 µM (active)
[52]
  GI50: 0.299 µM (active)

— ChEMBL document CHEMBL1201862, “PubChem BioAssay data set” (2004)
